Read-outs that look alike come from different tables or passages of the source. Marks after values point to notes of the source that are not given here. Residues, ends and D or L forms follow the SMILES beside them.
Columns and labels:
[1] = target: T1, human sweet taste receptor (hT1R2/hT1R3) (Homo sapiens, UniProt Q7RTX0+Q8TE23); test: DMR assay (Epic reader) on R2/R3 U2OS cells, endogenous G proteins; type: cell-based; settings: for EC50: R2/R3 U2OS cells, peak DMR response; for ΔlogR DMR Mean: Table 2, operational model, logR minus sucralose logR; for Activity in DMR assay Emax: top asymptote of dose-response normalized to 1 mM sucralose
T1 construct: expressed in transfected cells
T1 sequence (Q8TE23 20-839): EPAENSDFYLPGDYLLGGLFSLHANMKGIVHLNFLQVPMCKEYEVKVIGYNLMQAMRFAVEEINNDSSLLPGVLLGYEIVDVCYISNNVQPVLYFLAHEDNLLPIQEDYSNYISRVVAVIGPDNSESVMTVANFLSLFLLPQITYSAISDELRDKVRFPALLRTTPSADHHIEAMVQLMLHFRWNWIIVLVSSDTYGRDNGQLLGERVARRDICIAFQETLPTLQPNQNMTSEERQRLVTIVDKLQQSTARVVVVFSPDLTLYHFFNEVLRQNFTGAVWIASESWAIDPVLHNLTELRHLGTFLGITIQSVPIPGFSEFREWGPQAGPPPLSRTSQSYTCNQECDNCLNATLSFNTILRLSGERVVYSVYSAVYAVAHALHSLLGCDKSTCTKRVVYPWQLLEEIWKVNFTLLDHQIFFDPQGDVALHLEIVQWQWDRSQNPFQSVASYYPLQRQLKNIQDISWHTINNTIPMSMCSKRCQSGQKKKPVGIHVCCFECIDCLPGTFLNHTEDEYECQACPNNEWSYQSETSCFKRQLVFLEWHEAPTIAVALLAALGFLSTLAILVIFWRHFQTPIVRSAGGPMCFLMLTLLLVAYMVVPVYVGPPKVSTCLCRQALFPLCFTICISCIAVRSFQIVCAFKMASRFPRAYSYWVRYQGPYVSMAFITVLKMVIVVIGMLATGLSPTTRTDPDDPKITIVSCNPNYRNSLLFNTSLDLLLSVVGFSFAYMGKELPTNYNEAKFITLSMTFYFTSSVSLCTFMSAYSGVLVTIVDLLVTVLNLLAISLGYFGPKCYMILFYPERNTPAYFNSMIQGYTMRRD
T1 sequence (Q7RTX0 21-852): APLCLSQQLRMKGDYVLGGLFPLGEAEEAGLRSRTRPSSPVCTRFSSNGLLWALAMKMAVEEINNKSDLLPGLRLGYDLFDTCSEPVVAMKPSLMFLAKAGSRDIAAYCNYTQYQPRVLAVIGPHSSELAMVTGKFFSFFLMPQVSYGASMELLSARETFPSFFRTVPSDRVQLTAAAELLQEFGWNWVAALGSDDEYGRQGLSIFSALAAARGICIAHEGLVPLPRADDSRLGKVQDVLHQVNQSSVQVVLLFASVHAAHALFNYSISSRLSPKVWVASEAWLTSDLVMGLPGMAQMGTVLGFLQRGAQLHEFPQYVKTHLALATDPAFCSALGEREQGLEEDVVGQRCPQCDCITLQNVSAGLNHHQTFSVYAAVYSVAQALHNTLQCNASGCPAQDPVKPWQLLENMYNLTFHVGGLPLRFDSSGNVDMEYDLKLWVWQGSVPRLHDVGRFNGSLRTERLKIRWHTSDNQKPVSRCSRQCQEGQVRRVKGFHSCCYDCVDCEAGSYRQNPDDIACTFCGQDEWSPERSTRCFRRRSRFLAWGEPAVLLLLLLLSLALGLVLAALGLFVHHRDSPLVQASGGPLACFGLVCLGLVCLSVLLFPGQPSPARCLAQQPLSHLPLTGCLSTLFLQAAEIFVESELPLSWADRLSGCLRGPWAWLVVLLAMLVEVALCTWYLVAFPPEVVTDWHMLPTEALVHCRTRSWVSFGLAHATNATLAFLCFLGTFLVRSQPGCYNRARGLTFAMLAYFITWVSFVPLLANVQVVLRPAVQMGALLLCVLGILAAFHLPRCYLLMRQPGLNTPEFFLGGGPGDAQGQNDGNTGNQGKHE
Procedure: The plates were incubated in the tissue culture hood for 20 min to allow cells to settle evenly at the bottom of the microplate and further cultured at 37°C in an atmosphere of 5% CO2 for 18–24 h. The next day, the cells were subjected to functional analysis using DMR. […] When indicated, data for agonist dose-responses were normalized to data obtained with a maximum concentration of sucralose (1 mM) and then fitted and plotted using GraphPad Prism (San Diego, CA) and non-linear regression analysis.
(§1) This value, that we termed pEC50Ratio (sucralose) or pEC50R (sucralose), was calculated with EC50 values obtained in the two assay systems. This transformation also allowed determination of an average and a standard error for the pEC50R (sucralose). The two sets of data (DMR and FLIPR data) were then analyzed with an un-paired t-test (α = 0.05). To calculate relative efficacy bias between the two assays, we captured the top asymptote value from each activity-normalized dose-response curve, as provided by the curve fit, calculated an average and a standard deviation (sd) for each agonist and then analyzed the data pairs with an un-paired t-test (α = 0.05). […] The following steps were followed: 1) Using the PRISM software, we re-analyzed each ligand’s dose-response data obtained in each assay with non-linear regression and the users-defined equation “New Operational Model with TauKa ratios” and retrieved logR values from the fits. 2) Subtracted each ligand’s logR value with that of our standard, the sucralose logR value, obtained from the same data set (each ligand dose-response assay data used in this analysis was accompanied with a sucralose dose-response ran on the same day), producing the ΔlogR value for leach ligand in each assay. 3) Calculated the mean and SEM from ΔlogR replicates (from three to nine independent dose-response analysis, in the two different assays). 4) Calculated ΔΔlogR values by subtracting the averaged ligands’ ΔlogR FLIPR values with the averaged ligands’ ΔlogR DMR values.

[2] = target: T2, human sweet taste receptor (hT1R2/hT1R3) coupled to Gα15 (Homo sapiens, UniProt Q7RTX0+Q8TE23); test: FLIPR calcium mobilization assay, R2/R3 U2OS cells transduced with Gα15 baculovirus; type: cell-based; settings: for ΔlogR FLIPR Mean: FLIPR-Gα15, operational model, logR minus sucralose logR; for Activity in FLIPR assay Emax: top asymptote of dose-response normalized to 1 mM sucralose; for Bias factor: inverse log of ΔΔlogR, FLIPR-Gα15 vs DMR; for ΔΔlogR Mean: ΔlogR FLIPR-Gα15 minus ΔlogR DMR
T2 construct: expressed in transfected cells
T2 sequence (Q8TE23 20-839): T1 sequence (Q8TE23 20-839)
T2 sequence (Q7RTX0 21-852): T1 sequence (Q7RTX0 21-852)
Procedure: The Gα15 coding sequence was inserted in the HindIII-NotI sites and recombinant virus was generated using the Bac-to-Bac system (Life Technologies). Virus was further amplified by propagation in Sf9 cells grown in suspension using Sf900-II media. Virus titers were determined by plaque assay on Sf9 cells.
Cells were gently mixed with the virus at a multiplicity of infection (MOI) of 5. Using a multidrop, 70 μl per well of the cell and virus mixture was dispensed in a 384-well clear bottom plate (Fisher). After 24 h of incubation in a humidified 37°C tissue culture incubator, trichostatin A was added to a final concentration of 0.3 μM and the cells were incubated for another 18–24 h at 34°C. On the day of the experiment, cells were loaded with 4 μM of the calcium indicator Fluo-4 AM (Invitrogen) in D-PBS for 1 h at room temperature. After washing the cells with D-PBS using a cell washer (BioTek) and a 30-minute rest time, the cell plate and the compound plate were transferred into the FLIPR-Tetra (Molecular Devices). […] Loading and the FLIPR assay were run as described above. When indicated, data for agonist dose-responses were normalized to data obtained with a maximum concentration of sucralose (1 mM) and then fitted and plotted using GraphPad Prism (San Diego, CA) and non-linear regression analysis.
as §1

[3] = read-out: Activity in DMR assay EC50
[4] = read-out: Activity in DMR assay pEC50 (converted)
[5] = Activity in FLIPR assay EC50, R2/R3 U2OS cells expressing Gα15
[6] = Activity in FLIPR assay pEC50, R2/R3 U2OS cells expressing Gα15
[7] = R2/R3 U2OS cells expressing Gα15, read-out: Activity in FLIPR assay EC50
[8] = R2/R3 U2OS cells expressing Gα15, read-out: Activity in FLIPR assay pEC50 (converted)

Row | Structure (SMILES) | EC50 [1, 3] [µM] | EC50 [1, 4] [µM] | ΔlogR DMR Mean [1] | Activity in DMR assay Emax [1] | EC50 [2, 5] [µM] | EC50 [2, 6] [µM] | ΔlogR FLIPR Mean [2] | Activity in FLIPR assay Emax ([2]; Gα15) | Bias factor [2] | ΔΔlogR Mean [2] | EC50 [2, 7] [µM] | EC50 [2, 8] [µM] | response in the FLIPR assay, in words ([2]; R2/R3 U2OS cells transduced with Gα15) | leftward shift in the sucralose dose-response in the DMR assay ([1]; 25 μM SE-2, mean ± sd, n = 3) [fold] | agonist activity on its own in the DMR assay, in words ([1]; 25 μM SE-2 at lower sucralose concentrations) | enhancement factor of the sucralose dose-response in the FLIPR assay ([2]; 25 μM SE-2, Gα15, mean ± sd, n = 4) [fold]
1 | C[C@@H](NC(=O)[C@@H](N)CC(=O)O)C(=O)NC1C(C)(C)SC1(C)C [Alitame] | 37 | 32.5 | 0.35 | 106 | 20 | 19.4 | 0.52 | 100 | 1.5 | 0.18 |  |  |  |  |  | 
2 | COC(=O)[C@H](Cc1ccccc1)NC(=O)[C@@H](N)CC(=O)O [Aspartame] (H-Asp-Phe-OMe) | 910 | 771 | −0.72 | 143 |  |  | −0.74 | 106 |  | −0.03 | 354 | 352 |  |  |  | 
3 | O=C(CO)[C@@H](O)[C@H](O)[C@H](O)CO [D-fructose] |  |  |  |  |  |  |  |  |  |  |  |  | readily detected |  |  | 
4 | CCOc1ccc(NC(N)=O)cc1 [Dulcin] | 33 | 30.7 | 0.20 | 57**** |  |  | 0.38 | 87**** |  | 0.18 |  | 23.1 |  |  |  | 
5 | CCCOc1ccc([N+](=O)[O-])cc1N [P-4000] |  | 3.78 | 1.31 | 102 |  |  | 1.67 | 164**** |  | 0.36 | 2.2 | 2.12 |  |  |  | 
6 | Cc1cc(C)c2c(c1)[C@H](NC(=O)c1conc1C)CCC2 [S679] | 1.3 | 1.22 | 2.07 | 133 |  |  | 2.15 | 159**** |  | 0.08 | 0.7 | 0.716 |  |  |  | 
7 | COCc1cncc(-c2ccc(C(C)(C)C(=O)NCC(C)C)cc2)n1 [S1313] |  | 1.51 | 1.91 | 130 |  |  | 2.14 | 170**** |  | 0.22 | 0.7 | 0.665 |  |  |  | 
8 | C[C@H](NC(=Nc1ccc(C#N)cc1)NCC(=O)O)c1ccccc1 [SC-45647] | 4.3 | 4.09 | 1.38 | 97** |  |  | 1.45 | 98** |  | 0.07 |  | 2.28 |  |  |  | 
9 | Cc1sc2[nH]c(=O)nc(N)c2c1C [SE-2] |  |  |  |  |  |  |  |  |  |  |  |  |  | 5.1 ± 1.5 | did not produce any agonist activity on its own | 7.3 ± 0.9
10 | O=C1NS(=O)(=O)c2ccccc21 [Saccharin] |  |  | −0.31 | 145 |  |  | −0.47 | 90**** |  | −0.16 |  |  |  |  |  | 
11 | C=C1C[C@@]23CC[C@H]4[C@@](C)(CCC[C@@]4(C)C(=O)O[C@@H]4O[C@H](CO)[C@@H](O)[C@H](O)[C@H]4O)[C@@H]2CC[C@]1(O[C@@H]1O[C@H](CO)[C@@H](O)[C@H](O)[C@H]1O[C@@H]1O[C@H](CO)[C@@H](O)[C@H](O)[C@H]1O)C3 [Stevioside] | 127 | 114 | 0.09 | 141 | 51 | 50.1 | 0.13 | 102 |  | 0.04 |  |  |  |  |  | 
12 | COC(=O)[C@H](Cc1ccccc1)NC(=O)[C@H](CC(=O)O)NC(=O)Nc1ccc(C#N)cc1 [Superaspartame] | 9.8 | 9.48 | 1.04 | 109 |  |  | 1.17 | 105 |  | 0.13 | 4.7 | 4.62 |  |  |  | 
13 | CC1=CC(=O)NS(=O)(=O)O1 [acesulfame K] | 1220 | 906 | −0.99 | 122 |  |  | −0.74 | 73**** | 1.8 |  | 253 | 251 |  |  |  | 

— publication PMC8893300, “A Dynamic Mass Redistribution Assay for the Human Sweet Taste Receptor Uncovers G-Protein Dependent Biased Ligands” (Frontiers in Pharmacology, 2022)
